In patent publication US11377473B2, “Albumin-binding prodrugs of auristatin E derivatives” (priority 2017, dated 2022):

Assays:
[1] = tested on: malignant melanoma cancer model A375; assay: Human malignant melanoma cancer model A375, large tumors; assay type: in vivo, NMRI nude mice
Experimental: (§1) Feed and water were provided ad libitum. […] Identification used: ear mark and cage labels. […] Tumor volumes were calculated according to the following equation: […]
The evaluation of auristatin E and the albumin-binding auristatin E derivative AE-Keto-Sulf07 in a human malignant melanoma cancer model A375 was carried out as described in the general procedure for cell-line-derived xenograft models.
(§2) Stock solutions were prepared as follows: • 1) 7 mice, 28 g average weight, 310 mm^3 average median tumor volume on day of randomization: 0.3 mg/kg auristatin E TFA salt (AE equiv.) dosed twice weekly for 3 weeks on day 1, 6, 9, 13, 16≡0.35 mg/kg≡7.1 μg/20 g mouse.
The evaluation of auristatin E and the albumin-binding auristatin E derivative AE-Ester-Sulf07 in a human malignant melanoma cancer model A375 was carried out as described in the general procedure for cell-line-derived xenograft models.
as §2, with “Based on the dosing experience in the RXF631 xenograft model, stock” for “Stock”, “16=0.35” for “16≡0.35”

[2] = tested on: human ovarian carcinoma model A2780; assay: Human ovarian carcinoma model A2780, large tumors; assay type: in vivo, NMRI nude mice
Experimental: as §1
(§3) The evaluation of auristatin E and the albumin-binding auristatin E derivative AE-Keto-Sulf07 in a human ovarian carcinoma model A2780 was carried out as described in the general procedure for cell-line-derived xenograft models.
The evaluation of auristatin E and the albumin-binding auristatin E derivative AE-Ester-Sulf07 in a human ovarian carcinoma model A2780 was carried out as described in the general procedure for cell-line-derived xenograft models.

[3] = tested on: human tumor xenograft models; assay: Antitumor activity in human tumor xenograft mice models (overall statement); assay type: in vivo, nude mice; conditions: starting tumor volumes approximately 130-170 mm^3 and up to approximately 380 mm^3
[4] = tested on: human ovarian carcinoma model A2780; assay: Human ovarian carcinoma model A2780, small tumors; assay type: in vivo, NMRI nude mice
Experimental: as §1, §3
The evaluation of the albumin-binding auristatin E derivative AE-Ester-Sulf07 in a human ovarian carcinoma model A2780 was carried out as described in the general procedure for cell-line-derived xenograft models.
AE-Ester-Sulf07 was also tested in the same ovarian carcinoma model A2780 with smaller tumors and a different dosing scheme to diminish the side effects of the drug on the skin of the mice. AE-Ester-Sulf07 was dosed at 3.8 mg/kg four times once weekly, showing again a statistically significant improved antitumor effect compared to the control (p<0.01 from day 7 to 14). Mice treated with AE-Ester-Sulf07 in the new dosing regimen achieved partial remission from day 12 until day 35 and complete remission from day 39 until the end of the study on day 70.

[5] = tested on: NSCLC xenograft model LXFA737; assay: Human non-small cell lung cancer model LXFA737, small tumors; assay type: in vivo, NMRI nude mice; conditions: for p, antitumor efficacy versus auristatin E: 8 times twice weekly, day 56 and 63
Description: Mice were kept under a 14-hour light/10-hour dark, artificial light cycle. The animals were fed with autoclaved Teklad Global 19% Protein Extruded Diet (T.2019S.12) from Envigo RMS SARL and had access to sterile filtered and acidified (pH 2.5) tap water which was changed twice weekly. Feed and water were provided ad libitum. […] Animals were routinely monitored twice daily on working days and daily on Saturdays and Sundays. Starting on day 0, animals were weighed twice a week. Relative body weights (RBW) of individual animals were calculated by dividing the individual absolute body weight on day X (BWx) by the individual body weight on the day of randomization multiplied by 100%. […] Tumor volumes were calculated according to the following equation: […]
Statistical analysis was only carried out if at least 50% of the initially randomized animals in a relevant group were still alive. Comparisons between test groups were carried out for the same days. By convention, p-values ≤0.05 indicate significance of tumor inhibition. Statistical calculations were performed using GraphPad Prism bioanalytic software (San Diego Calif. USA, www.graphpad.com).
The evaluation of auristatin E and the albumin-binding auristatin E derivative AE-Keto-Sulf07 in a human non-small cell lung cancer model LXFA737 was carried out as described in the general procedure for patient-derived xenograft models.
Sample preparation: 38 mg weighed in a 30 mL vial dissolved in 23.8 mL 50/50 tert-butanol/10 mM sodium citrate buffer, 5% sucrose—pH 6; 1.2 mL were aliquoted in 4 mL vials.
The evaluation of auristatin E and the albumin-binding auristatin E derivative AE-Ester-Sulf07 in a human non-small cell lung cancer model LXFA737 was carried out as described in the general procedure for patient-derived xenograft models.

[6] = 2.4 mg/kg five times twice weekly
[7] = 1.9 mg/kg eight times twice weekly
[8] = 0.3 mg/kg eight times twice weekly

## 2-(2-(1-(4-(((1S,2R)-2-((2R,3R)-3-((S)-1-((3R,4R,5S)-4-((S)-2-((R)-2-(dimethylamino)-3-methylbutanamido)-N,3-dimethylbutanamido)-3-methoxy-5-methylheptanoyl)pyrrolidin-2-yl)-3-methoxy-2-methylpropanamido)-1-phenylpropoxy)carbonyl)phenyl)ethylidene)hydrazine-1-carbonyl)-5-(6-(2,5-dioxo-2,5-dihydro-1H-pyrrol-1-yl)hexanamido)benzenesulfonic acid [AE-Ester-Sulf07]
[1]; 2.4 mg/kg (2% polysorbate 80 or 4% 2-HPßCD) versus auristatin E 0.3 mg/kg, five injections twice weekly, day 9 to 33
  p, antitumor improvement versus auristatin E: < 0.01
[1]; [6]
  body weight change: No significant body weight change compared to the control
  side effects: wounds due to biting and scratching were observed starting from day 9
[1]; 2.4 mg/kg five times twice weekly, day 16 until end of study on day 37
  tumor response: almost complete remission
[1]; 2.4 mg/kg reconstituted with 2% polysorbate 80, day 23
  minimum tumor volume: 4 mm^3
[1]; 2.4 mg/kg reconstituted with 4% 2-HPßCD, day 26
  minimum tumor volume: 1 mm^3
[1]; 2.4 mg/kg, 2% polysorbate 80 group
  animals lost: Only one mouse
[2]; [7]
  animals lost: four animals had to be removed from the study due to tumor necrosis
  body weight: no sign of body weight loss compared to the control
[2]; 1.9 mg/kg eight times twice weekly, day 19 until day 51
  tumor response: partial remission (partial remission >10-50%)
[2]; 1.9 mg/kg eight times twice weekly, day 54 until end of study on day 103
  tumor response: complete remission (complete remission <10%)
[2]; 1.9 mg/kg versus auristatin E 0.3 mg/kg, eight times twice weekly, day 37 to day 40
  p, antitumor efficacy versus auristatin E: < 0.001
[3]
  antitumor activity in all human tumor xenografts evaluated: partial and complete remissions
[4]; 3.8 mg/kg four times once weekly
  animals lost: Three AE-Ester-Sulf07 treated mice showed body weight loss and had to be sacrificed on day 59
[4]; 3.8 mg/kg four times once weekly, day 7 to 14
  p, antitumor effect compared to the control: < 0.01
[4]; 3.8 mg/kg four times once weekly, day 12 until day 35
  tumor response: partial remission (partial remission >10-50%)
[4]; 3.8 mg/kg four times once weekly, day 39 until end of study on day 70
  tumor response: complete remission (complete remission <10%)
[5]; 2.4 mg/kg 8 times twice weekly
  animals lost: five mice had to be euthanized due to a combination of body weight loss and skin lesions
[5]; 2.4 mg/kg 8 times twice weekly, reached on day 21, until end of study on day 74
  tumor response: complete tumor remission
[5]; 2.4 mg/kg versus auristatin E 0.3 mg/kg
  p, antitumor efficacy versus auristatin E: < 0.05
[5]; 2.4 mg/kg, until end of study on day 74
  tumor volume: unmeasurable level

## CC[C@H](C)[C@@H]([C@@H](CC(=O)N1CCC[C@H]1[C@H](OC)[C@@H](C)C(=O)N[C@H](C)C(=NNC(=O)c1ccc(NC(=O)CCCCCN2C(=O)C=CC2=O)cc1S(=O)(=O)O)c1ccccc1)OC)N(C)C(=O)[C@@H](NC(=O)[C@H](C(C)C)N(C)C)C(C)C [AE-Keto-Sulf07, 2-(2-((R)-2-((2R,3R)-3-((S)-1-((3R,4S,5S)-4-((S)-2-((S)-2-(dimethylamino)-3-methylbutanamido)-N,3-dimethylbutanamido)-3-methoxy-5-methylheptanoyl)pyrrolidin-2-yl)-3-methoxy-2-methylpropanamido)-1-phenylpropylidene)hydrazine-1-carbonyl)-5-(6-(2,5-dioxo-2,5-dihydro-1H-pyrrol-1-yl)hexanamido)benzenesulfonic acid]
[1]; 6.5 mg/kg five times twice weekly
  animals lost: two mice had to be sacrificed for general bad conditions
[1]; 6.5 mg/kg five times twice weekly, day 19 until end of study on day 37
  tumor response: complete remission (complete remission <10%)
[1]; 6.5 mg/kg versus auristatin E 0.3 mg/kg, five injections twice weekly, day 9 until day 33
  p, antitumor effect versus auristatin E: < 0.01
[1]; 6.5 mg/kg, day 28
  minimum tumor volume: 1 mm^3
[1]; 6.5 mg/kg, day 37
  tumor volume at the end of the study: ~14 mm^3
[1]; 6.5 mg/kg, reached on day 21
  transient body weight loss: 13%
[2]; 4.5 mg/kg eight times twice weekly
  body weight: only a slightly reduced body weight growth compared to the control
[2]; 4.5 mg/kg eight times twice weekly, day 26 until end of study on day 103
  tumor response: complete remission (complete remission <10%)
[2]; 4.5 mg/kg versus auristatin E 0.3 mg/kg, eight times twice weekly, day 22 to day 40
  p, antitumor effect versus auristatin E: < 0.001
[3]
  antitumor activity in all human tumor xenografts evaluated: partial and complete remissions
[4]; 3.0 and 5.0 mg/kg eight times twice weekly, day 9 until end of study on day 60
  tumor response: partial remission (partial remission >10-50%)
[4]; 3.0 and 5.0 mg/kg versus auristatin E 0.3 mg/kg, eight times twice weekly, day 7 to day 29
  p, antitumor efficacy versus auristatin E: < 0.01
[4]; 3.0 and 5.0 mg/kg, after the first treatment
  transient body weight loss: ~2%
[4]; higher dose 5.0 mg/kg, day 25 to day 51
  tumor response (transient): complete remission (complete remission <10%)
[4]; higher dose group 5.0 mg/kg
  animals lost: One mouse from the higher dose group was found dead on day 35
[4]; lower dose 3.0 mg/kg, day 23 to day 35
  tumor response (transient): complete remission (complete remission <10%)
[4]; lower dose group 3.0 mg/kg
  animals lost: one from the lower dose group had to be sacrificed on day 42 for general bad conditions
[5]; 4.5 mg/kg 8 times twice weekly, reached on day 28, until end of study on day 74
  tumor response: complete tumor remission
[5]; 4.5 mg/kg (polysorbate 80 and 2-HPßCD buffers) versus auristatin E 0.3 mg/kg
  p, antitumor efficacy versus auristatin E: < 0.01
[5]; 4.5 mg/kg administered in polysorbate 80
  animals lost: two mice had to be sacrificed for general bad conditions
[5]; 4.5 mg/kg in 2-HPßCD, day 32
  maximum body weight loss: −7%
[5]; 4.5 mg/kg, until end of study on day 74, independently of the buffer
  tumor volume: unmeasurable level

## CC[C@H](C)[C@@H]([C@@H](CC(=O)N1CCC[C@H]1[C@H](OC)[C@@H](C)C(=O)N[C@H](C)[C@@H](O)c1ccccc1)OC)N(C)C(=O)[C@@H](NC(=O)[C@H](C(C)C)N(C)C)C(C)C [auristatin E]
[1]; 0.3 mg/kg five times twice weekly, initial, until day 14
  tumor response: stable disease (stable disease >75-125%)
[2]; [8]
  antitumor effect: did not achieve any antitumor effect
[3]
  antitumor activity in all human tumor xenografts evaluated: principally inactive
[4]; [8]
  antitumor effect: did not achieve any antitumor effect
[5]; 0.3 mg/kg 8 times twice weekly, temporarily, day 21 to day 42
  tumor response: stable disease (stable disease >75-125%)
